In US6462066B2, “Method and composition for treatment of ischemic neuronal reperfusion injury” (University of South Florida, priority 1999, dated 2002):

Columns and labels:
[1] = Dantrolene treatment of the patient of Example 2 (post-operative bilateral ischemic optic neuropathy), visual acuity and visual fields; format: in vivo, human; conditions: Example 2 patient
Method: Their past medical history is significant for an episode of hyperglycemia approximately 45 years previously. They have been a non-smoker for the last 20 years, and prior to that they were a heavy smoker.
The operation lasts for approximately 10 hours. They are under general anesthesia for the duration of the operation. The estimated blood loss is 2200 mL during the operation, of which 1200 mL is replaced via a cell saver, and an additional 2 units of blood is given along with crystalloids. Their blood pressure drops once during the operation to 89 mm Hg. Before the surgery they are able to read with glasses. […] Strong venous pulsations are seen at the optic disc of the left eye. A diagnosis of bilateral ischemic optic neuropathy is made.
(§1) He is placed on intravenous dantrolene, 2 mg/kg body weight q 2 hourly×3 followed q 8 hourly. In addition, […] is placed on solumedrol, 250 mg q 6 hourly. […] visual acuity fields are recorded on a daily basis. On day 3 dantrolene treatment is changed from intravenous to oral 500 mg po tid. On day 4 color vision is restored and on day 5 all treatment is stopped.

[2] = Dantrolene treatment of the patient of Example 1 (post-operative bilateral ischemic optic neuropathy), visual acuity and visual fields; format: in vivo, human; conditions: Example 1 patient
Method: A patient undergoes back surgery lasting 8 hours and, upon awakening after 16 hours, complains of not being able to see from their left eye. The surgery had lasted 8 hours, and 1 unit of blood had been lost. During surgery, their systolic blood pressure had dropped to 80 mm Hg. […] They are a contact lens wearer. previously having a corrected visual acuity of 20/20 bilaterally.
There is a relative afferent pupillary defect on the left. They have a sizeable loss of their right visual field, which is illustrated in FIGS. 2A and 2B. […] Both pupils are reactive, varying in diameter from 3.0 to 3.5 mm.
Their extra-ocular muscle movements, intraocular pressures, and anterior segment exam, are within normal limits. […] The right optic disc is of normal color. […] It is pulsatile, and each time a pulse occurs, it jumps away from the optic disc. This can be clearly seen with a 90 diopter lens and a portable Kowa slit lamp, or with a 20 diopter lens and a Keeler indirect opthalmoscope. The retina appears normal in both eyes. […] A clinical diagnosis of posterior ischemic optic neuropathy with resultant field defect and pending loss of vision in the right eye is also made. MRI of the optic nerves confirms these diagnoses. Bilateral swelling of the optic nerves is seen behind the optic discs. The swelling is more marked in the left optic nerve than in the right. MRI confirms that they have a swollen optic left nerve. A diagnosis of bilateral ischemic optic neuropathy is made: the blood supply to the left eye has been occluded, and the same process is occurring in the right eye. Just prior to discovering their loss of sight, their serum calcium is low, and the nurse administers intravenous calcium.
To prevent compression of the blood supply in the right eye, the patient is given high dosed pulsed steroids. However, excitotoxic damage of the retina from reperfusion injury is almost certain in the absence of the treatment of the present invention.
The patient is administered 2 gm solumedrol, and then 1 gm every 6 hours. Dantrolene is administered at 2 mg/kg every 2 hours for three treatments, and then 1 mg/kg every 8 hours.

[3] = Serum level of dantrolene in the patient of Example 2; format: in vivo, human; conditions: Example 2 patient
Method: as §1
The serum level of dantrolene is 14×10^−6 gm/mL on day 4, and 15×10^−6 gm/mL on day 2.

excitotoxic damage = conditions: stated as known; cited from earlier work

serum level of dantrolene ([3]; day 2 (intravenous dantrolene)): 15×10^−6 gm/mL
serum level of dantrolene ([3]; day 4 (oral 500 mg po tid from day 3)): 14×10^−6 gm/mL
SMILES: O=C1CN(/N=C/c2ccc(-c3ccc([N+](=O)[O-])cc3)o2)C(O)=N1 [Dantrolene]
visual acuity with glasses ([1]; 16 hours postoperatively, intravenous dantrolene 2 mg/kg q 2 hourly x3 then q 8 hourly, with solumedrol, baseline no light perception in either eye): counting fingers OU in the superior visual fields
color vision ([1]; day 4): restored
vision of the left eye ([2]; 24 hours after initiation of treatment, baseline no perception of light): light perception
corrected visual acuity in the right eye ([2]; 24 hours later, dantrolene 2 mg/kg every 2 hours x3 then 1 mg/kg every 8 hours, with solumedrol, baseline uncorrected 20/70): 20/30
vision of the left eye ([2]; 72 hours after treatment): starts to perceive hand movement
uncorrected visual acuity in the right eye ([2]; by the fifth day, baseline 20/70): 20/50
inferior field loss ([2]; right eye, at the fifth day (lessens from 48 hours after starting treatment)): none
corrected visual acuity in the left eye at distance ([2]; two months after discharge): counting fingers
corrected visual acuity in the left eye at near distance ([2]; two months after discharge): 20/800
excitotoxic damage in an animal seizure model (excitotoxic damage): prevents excitotoxic damage
